Measurements from patent US7300946B2, “N-(substituted arylmethyl)-4-(disubstituted methyl) piperidines and pyridines” (Bayer CropScience AG, priority 2002, dated 2007).

System: tobacco budworm (Heliothis virescens [Fabricius])
Assay: surface-treated diet test against the tobacco budworm
Format: in vivo
Conditions: tobacco budworm second instar larvae, 0.25 millimoles of candidate insecticide on the surface of the diet, five-day exposure; for Percent Mortality: compared to total number of insects infested; for Percent Growth Inhibition: inhibition of insect weight relative to untreated controls
How it was run: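 Wheat germ artificial diet surface-treated with 40 µL of 50 mM DMSO stock diluted 1:7 in 1:1 water/acetone (0.25 millimolar on diet), or sub-multiples for rate tests. One second-instar larva per well, 25° C, 60% RH, 5 days; percent weight inhibition vs DMSO controls and percent mortality.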

| SMILES | Percent Mortality [%] | Percent Growth Inhibition [%] |
| --- | --- | --- |
| CNC(=O)OC(c1ccc(C(F)(F)F)cc1)C1CCN(Cc2ccc(Oc3ccccn3)cc2)CC1 (stereo not drawn) [Compound 771] | 17 | 72 |
| CNC(=S)OC(c1ccc(C(F)(F)F)cc1)C1CCN(Cc2ccc(Oc3ccccn3)cc2)CC1 (stereo not drawn) [Compound 772] | 0 | 78 |
| CCON=Cc1ccc(CN2CCC(C(OC(=O)N(C)C)c3ccc(C(F)(F)F)cc3)CC2)cc1 (stereo not drawn) [Compound 773] | 100 | 100 |
| CCNC(=O)OC(c1ccc(C(F)(F)F)cc1)C1CCN(Cc2ccc(Oc3ccccn3)cc2)CC1 (stereo not drawn) [Compound 774] | 0 | 98 |
| CCCNC(=O)OC(c1ccc(C(F)(F)F)cc1)C1CCN(Cc2ccc(Oc3ccccn3)cc2)CC1 (stereo not drawn) [Compound 775] | 33 | 100 |
| CC(C)NC(=O)OC(c1ccc(C(F)(F)F)cc1)C1CCN(Cc2ccc(Oc3ccccn3)cc2)CC1 (stereo not drawn) [Compound 776] | 100 | 100 |
| CC(C)NC(=S)OC(c1ccc(C(F)(F)F)cc1)C1CCN(Cc2ccc(Oc3ccccn3)cc2)CC1 (stereo not drawn) [Compound 777] | 67 | 100 |
| CC(C)N(C)C(=O)OC(c1ccc(C(F)(F)F)cc1)C1CCN(Cc2ccc(Oc3ccccn3)cc2)CC1 (stereo not drawn) [Compound 778] | 0 | 100 |
| CC(C)(C)NC(=O)OC(c1ccc(C(F)(F)F)cc1)C1CCN(Cc2ccc(Oc3ccccn3)cc2)CC1 (stereo not drawn) [Compound 779] | 100 | 100 |
| C=CCNC(=O)OC(c1ccc(C(F)(F)F)cc1)C1CCN(Cc2ccc(Oc3ccccn3)cc2)CC1 (stereo not drawn) [Compound 780] | 0 | 98 |
| O=C(NC1CCCC1)OC(c1ccc(C(F)(F)F)cc1)C1CCN(Cc2ccc(Oc3ccccn3)cc2)CC1 (stereo not drawn) [Compound 781] | 100 | 100 |
| O=C(NC1CCCCC1)OC(c1ccc(C(F)(F)F)cc1)C1CCN(Cc2ccc(Oc3ccccn3)cc2)CC1 (stereo not drawn) [Compound 782] | 100 | 100 |
| CCOC(=O)CNC(=O)OC(c1ccc(C(F)(F)F)cc1)C1CCN(Cc2ccc(Oc3ccccn3)cc2)CC1 (stereo not drawn) [Compound 783] | 0 | 70 |
| COC(=O)C(NC(=O)OC(c1ccc(C(F)(F)F)cc1)C1CCN(Cc2ccc(Oc3ccccn3)cc2)CC1)C(C)C (stereo not drawn) [Compound 784] | 100 | 100 |
| CC(C)NC(=O)OC(c1ccc(C(F)(F)F)cc1)C1CC[N+]([O-])(Cc2ccc(Oc3ccccn3)cc2)CC1 (stereo not drawn) [Compound 785] | 100 | 100 |
| O=C(Nc1cc(F)cc(F)c1)OC(C1=CCN(Cc2ccc(Oc3ncccn3)cc2)CC1)c1ccc(C(F)(F)F)cc1 (stereo not drawn) [Compound 786, N-(3,5-difluorophenyl)({1-[(4-pyrimidin-2-yloxyphenyl)methyl](4-1,2,5,6-tetrahydropyridyl)}[4-(trifluoromethyl)phenyl]methoxy)carboxamide] | 100 | 100 |
| O=C(Nc1cc(F)cc(F)c1)OC(C1=CC[N+]([O-])(Cc2ccc(Oc3ncccn3)cc2)CC1)c1ccc(C(F)(F)F)cc1 (stereo not drawn) [Compound 787] | 100 | 100 |
| CC(=O)Oc1ccc(CN2CCC(=C(c3ccc(C(F)(F)F)cc3)c3ccc(C(F)(F)F)cc3)CC2)cc1 [Compound 788] | 33 | 87 |
| CNC(=O)Oc1ccc(CN2CCC(=C(c3ccc(Cl)cc3)c3ccc(Cl)cc3)CC2)cc1 [Compound 789] | 100 | 100 |
| CNC(=O)Oc1ccc(CN2CCC(=C(c3ccc(C(F)(F)F)cc3)c3ccc(C(F)(F)F)cc3)CC2)cc1 [Compound 790] | 100 | 100 |
| CNC(=O)Oc1ccc(CN2CCC(=C(c3ccc(OC(F)(F)F)cc3)c3ccc(OC(F)(F)F)cc3)CC2)cc1 [Compound 791] | 100 | 100 |
| CC(C)NC(=O)Oc1ccc(CN2CCC(=C(c3ccc(C(F)(F)F)cc3)c3ccc(C(F)(F)F)cc3)CC2)cc1 [Compound 792] | 100 | 100 |
| CC(C)OC(=O)Nc1ccc(CN2CCC(=C(c3ccccc3)c3ccccc3)CC2)cc1 [Compound 793] | 0 | 76 |
| CC(C)OC(=O)Nc1ccc(CN2CCC(=C(c3ccc(F)cc3)c3ccc(F)cc3)CC2)cc1 [Compound 794] | 83 | 100 |
| CC(C)OC(=O)Nc1ccc(CN2CCC(=C(c3ccc(Cl)c(Cl)c3)c3ccc(Cl)c(Cl)c3)CC2)cc1 [Compound 795] | 50 | 94 |
| CC(C)OC(=O)Nc1ccc(CN2CCC(=C(c3ccc(Cl)c(F)c3)c3ccc(Cl)c(F)c3)CC2)cc1 [Compound 796] | 100 | 100 |

| SMILES | Percent Mortality [%] | Percent Growth Inhibition [%] |
| --- | --- | --- |
| C=CCOC(=O)Nc1ccc(CN2CCC(=C(c3ccc(C(F)(F)F)cc3)c3ccc(C(F)(F)F)cc3)CC2)cc1 [Compound 797] | 100 | 100 |
| CC=CCOC(=O)Nc1ccc(CN2CCC(=C(c3ccc(Cl)cc3)c3ccc(Cl)cc3)CC2)cc1 [Compound 798] | 0 | 59 |
| CC=CCOC(=O)Nc1ccc(CN2CCC(=C(c3ccc(C(F)(F)F)cc3)c3ccc(C(F)(F)F)cc3)CC2)cc1 [Compound 799] | 0 | 83 |
| C=C(C)COC(=O)Nc1ccc(CN2CCC(=C(c3ccc(Cl)cc3)c3ccc(Cl)cc3)CC2)cc1 [Compound 800] | 0 | 86 |
| C#CCOC(=O)Nc1ccc(CN2CCC(=C(c3ccc(Cl)cc3)c3ccc(Cl)cc3)CC2)cc1 [Compound 801] | 100 | 100 |
| C#CCOC(=O)Nc1ccc(CN2CCC(=C(c3ccc(C(F)(F)F)cc3)c3ccc(C(F)(F)F)cc3)CC2)cc1 [Compound 802] | 100 | 100 |
| CS(=O)(=O)Oc1ccc(CN2CCC(=C(c3ccc(C(F)(F)F)cc3)c3ccc(C(F)(F)F)cc3)CC2)cc1 [Compound 803] | 100 | 100 |
| CC(C)S(=O)(=O)Oc1ccc(CN2CCC(=C(c3ccc(C(F)(F)F)cc3)c3ccc(C(F)(F)F)cc3)CC2)cc1 [Compound 804] | 100 | 100 |
| CS(=O)(=O)Nc1ccc(CN2CCC(=C(c3ccc(C(F)(F)F)cc3)c3ccc(C(F)(F)F)cc3)CC2)cc1 [Compound 805] | 33 | 100 |
| Fc1ccccc1Oc1ccc(CN2CCC(=C(c3ccc(C(F)(F)F)cc3)c3ccc(C(F)(F)F)cc3)CC2)cc1 [Compound 806] | 0 | 100 |
| FC(F)(F)c1ccc(C(=C2CCN(Cc3ccc(-c4ccccn4)cc3)CC2)c2ccc(C(F)(F)F)cc2)cc1 [Compound 807] | 100 | 100 |
| c1ccc(C(=C2CCN(Cc3ccc(Oc4ccccn4)cc3)CC2)c2ccccc2)cc1 [Compound 808] | 0 | 64 |
| Clc1ccc(C(=C2CCN(Cc3ccc(Oc4ccccn4)cc3)CC2)c2ccc(Cl)cc2)cc1 [Compound 809] | 100 | 100 |
| Fc1ccc(C(=C2CCN(Cc3ccc(Oc4ccccn4)cc3)CC2)c2ccc(F)cc2)cc1 [Compound 810] | 100 | 100 |
| FC(F)(F)c1ccc(C(=C2CCN(Cc3ccc(Nc4ccccn4)cc3)CC2)c2ccc(C(F)(F)F)cc2)cc1 [Compound 811] | 100 | 100 |
| Clc1ccc(C(=C2CCN(Cc3ccc(Oc4ncccn4)cc3)CC2)c2ccc(Cl)cc2)cc1 [Compound 812] | 100 | 100 |
| Clc1ccc(C(=C2CCN(Cc3ccc(Oc4ncccn4)cc3)CC2)c2ccc(Cl)c(Cl)c2)cc1Cl [Compound 813] | 100 | 100 |
| FC(F)(F)c1ccc(C(=C2CCN(Cc3ccc(Oc4ncccn4)cc3)CC2)c2ccccc2Cl)cc1 [Compound 814] | 100 | 100 |
| FC(F)(F)c1ccc(C(=C2CCN(Cc3ccc(Oc4ncccn4)cc3)CC2)c2cccc(Cl)c2)cc1 [Compound 815] | 100 | 100 |
| FC(F)(F)c1ccc(C(=C2CCN(Cc3ccc(Oc4ncccn4)cc3)CC2)c2ccc(Cl)cc2)cc1 [Compound 816] | 100 | 100 |
| Fc1cccc(C(=C2CCN(Cc3ccc(Oc4ncccn4)cc3)CC2)c2ccc(C(F)(F)F)cc2)c1 [Compound 817] | 100 | 100 |
| FC(F)(F)c1ccc(C(=C2CCN(Cc3ccc(Oc4ncccn4)cc3)CC2)c2ccc(Cl)c(Cl)c2)cc1 [Compound 818] | 100 | 100 |
| FC(F)(F)c1ccc(C(=C2CCN(Cc3ccc(Oc4ncccn4)cc3)CC2)c2cc(Cl)cc(Cl)c2)cc1 [Compound 819] | 50 | 100 |
| Fc1cc(F)cc(C(=C2CCN(Cc3ccc(Oc4ncccn4)cc3)CC2)c2ccc(C(F)(F)F)cc2)c1 [Compound 820] | 50 | 92 |
| Fc1cc(C(=C2CCN(Cc3ccc(Oc4ncccn4)cc3)CC2)c2ccc(C(F)(F)F)cc2)ccc1Cl [Compound 821] | 100 | 100 |
